Where two headings read alike, the source gives them in different places. Where a SMILES comes first, the peptide text is derived from it. Bridges are numbered along the chain shown (N, C = ends).
Columns and labels:
Nav1.6 = molecular target: T1, Nav1.6 (Homo sapiens, UniProt Q9UQD0); test: Whole-cell patch clamp on Nav1.6 overexpressing HEK293 cells; format: cell-based; settings: 300 nM; −90 mV to +40 mV, 30 ms; n=5
T1 construct: expressed in transfected cells; host or cells: HEK293
Experimental: The effect of the polypeptide PPN-01 provided in Example 1 on voltage gated sodium channels is studied using the glass microelectrodes prepared as described above in Example 2 and employing the whole-cell membrane clamp techniques. The specific operations are as follows:
1. Firstly, internal electrode solution is placed on ice to defrost; after defrosting, an appropriate amount of internal electrode solution is drawn up with a 1 ml syringe; and after a homemade filler is applied to the tip end of the syringe, the air in the tube is emptied to fill the entire filler with internal electrode solution. Secondly, internal electrode solution in the filler is poured into the glass microelectrode from a rear part thereof by using the rear part perfusion method; internal electrode solution is slowly injected into the glass microelectrode; and the amount of perfusion is generally ⅓ to ½ of a length of the glass microelectrode (it is necessary to ensure that the silver wire of the electrode may fully contact internal electrode solution, but also to avoid electrode contamination resulting from too much internal electrode solution). […]

Nav1.7 channels = molecular target: T2, Nav1.7 channels (Homo sapiens, UniProt Q15858); test: Whole-cell patch clamp on Nav1.7 overexpressing HEK293 cells; format: cell-based; settings: for inhibition at 0.3 µM: HEK293, 300 nM, n=6, read-out: current inhibition
T2 construct: expressed in transfected cells; host or cells: HEK293
Experimental: The recording electrode used in the present example is a glass microelectrode, which is prepared as follows: The glass electrode blanks (outer diameter of 1.50 mm, inner diameter of 0.84 mm) are prepared into single-tube glass microelectrodes with tip diameters of 1-2 μm in four steps using the P-1000 Microelectrode Horizontal Puller for subsequent experiments. Be careful not to touch the heated platinum sheet in the center when pulling the electrode, and be careful not to touch the tip of the pulled electrode to prevent the tip from breaking. Since the tip of the glass microelectrode is highly susceptible to dust attraction, it is generally prepared for use now and should not be left overnight.
Glass microelectrodes are used as follows: rinse clean the glass microelectrodes before use; then put all the glass microelectrodes in a large beaker; add anhydrous ethanol so that the glass microelectrodes are completely immersed in anhydrous ethanol; and place the beaker in an ultrasonic cleaner with ultrasonic vibration for 30 min. Subsequently, pour out the anhydrous ethanol; rinse out the glass microelectrode with ultrapure water 3-4 times; use another small beaker to cover the microelectrode so as not to contaminate the electrode with dust; put the glass microelectrode into the oven for drying; and put the glass microelectrode into a clean box for spare use after drying.
In the patch clamp experiments, the measured sodium currents are corrected for leakage currents, and the primary data of the experiments are recorded using Clampfit 10.6, and the data acquisition is performed by the pCLAMP software. Three to five sweeps are selected for analysis, (sweep, which is a term used in patch clamp software and consists of a series of sampling points) in which the current is in a stable state before the addition of the polypeptide. The average value of the peak current is thus calculated as the control current amplitude. Then 3-5 sweeps in which the current is in a stable state after the addition of polypeptide are selected and analyzed, and the average value of the residual peak current is calculated as the residual current amplitude.
The electrical stimulation effect of polypeptides PPN-01 to PPN-16 on Nav1.7 overexpressing HEK293 cells is studied using the glass microelectrodes obtained from the above preparations and the whole-cell patch clamp techniques (n=1). In a voltage-clamp mode, the clamp voltage is kept at −90 mV; a square-wave stimulus depolarized from −90 mV to +40 mV with a duration of 30 ms is applied; the concentration of each dosing (polypeptide) is 300 nM; and validation is repeated for the six polypeptides that show a significant effect (n=2).
In a voltage-clamp mode, the clamp voltage is kept at −90 m V and a square-wave stimulus depolarized from −90 mV to +40 mV with a duration of 30 ms is applied.
2. The electrical stimulation effect of the polypeptide PPN-01 provided in Example 1 on Nav1.4, Nav1.5, Nav1.6, and Nav1.7 overexpressing HEK293 cells is studied using the glass microelectrodes obtained from the above preparations and employing the whole-cell patch clamp techniques (n=5). In a voltage-clamp mode, the clamp voltage is kept at −90 mV; a square-wave stimulus depolarized from −90 mV to +40 mV with a duration of 30 ms is applied; and a concentration of each dosing (polypeptide) is 300 nM.
3. After establishing whole-cell patch clamp configuration using glass microelectrodes filled with internal electrode solution and HEK293 cells overexpressing Nav1.4, Nav1.5, Nav1.6, or Nav1.7, the polypeptides provided in Example 1 are applied separately. In a voltage-clamp mode, the clamp voltage is kept at −90 m V and a square-wave stimulus depolarized from −90 m V to +40 m V with a duration of 30 ms is applied. […]

T2 sequence (Q15858 whole entry): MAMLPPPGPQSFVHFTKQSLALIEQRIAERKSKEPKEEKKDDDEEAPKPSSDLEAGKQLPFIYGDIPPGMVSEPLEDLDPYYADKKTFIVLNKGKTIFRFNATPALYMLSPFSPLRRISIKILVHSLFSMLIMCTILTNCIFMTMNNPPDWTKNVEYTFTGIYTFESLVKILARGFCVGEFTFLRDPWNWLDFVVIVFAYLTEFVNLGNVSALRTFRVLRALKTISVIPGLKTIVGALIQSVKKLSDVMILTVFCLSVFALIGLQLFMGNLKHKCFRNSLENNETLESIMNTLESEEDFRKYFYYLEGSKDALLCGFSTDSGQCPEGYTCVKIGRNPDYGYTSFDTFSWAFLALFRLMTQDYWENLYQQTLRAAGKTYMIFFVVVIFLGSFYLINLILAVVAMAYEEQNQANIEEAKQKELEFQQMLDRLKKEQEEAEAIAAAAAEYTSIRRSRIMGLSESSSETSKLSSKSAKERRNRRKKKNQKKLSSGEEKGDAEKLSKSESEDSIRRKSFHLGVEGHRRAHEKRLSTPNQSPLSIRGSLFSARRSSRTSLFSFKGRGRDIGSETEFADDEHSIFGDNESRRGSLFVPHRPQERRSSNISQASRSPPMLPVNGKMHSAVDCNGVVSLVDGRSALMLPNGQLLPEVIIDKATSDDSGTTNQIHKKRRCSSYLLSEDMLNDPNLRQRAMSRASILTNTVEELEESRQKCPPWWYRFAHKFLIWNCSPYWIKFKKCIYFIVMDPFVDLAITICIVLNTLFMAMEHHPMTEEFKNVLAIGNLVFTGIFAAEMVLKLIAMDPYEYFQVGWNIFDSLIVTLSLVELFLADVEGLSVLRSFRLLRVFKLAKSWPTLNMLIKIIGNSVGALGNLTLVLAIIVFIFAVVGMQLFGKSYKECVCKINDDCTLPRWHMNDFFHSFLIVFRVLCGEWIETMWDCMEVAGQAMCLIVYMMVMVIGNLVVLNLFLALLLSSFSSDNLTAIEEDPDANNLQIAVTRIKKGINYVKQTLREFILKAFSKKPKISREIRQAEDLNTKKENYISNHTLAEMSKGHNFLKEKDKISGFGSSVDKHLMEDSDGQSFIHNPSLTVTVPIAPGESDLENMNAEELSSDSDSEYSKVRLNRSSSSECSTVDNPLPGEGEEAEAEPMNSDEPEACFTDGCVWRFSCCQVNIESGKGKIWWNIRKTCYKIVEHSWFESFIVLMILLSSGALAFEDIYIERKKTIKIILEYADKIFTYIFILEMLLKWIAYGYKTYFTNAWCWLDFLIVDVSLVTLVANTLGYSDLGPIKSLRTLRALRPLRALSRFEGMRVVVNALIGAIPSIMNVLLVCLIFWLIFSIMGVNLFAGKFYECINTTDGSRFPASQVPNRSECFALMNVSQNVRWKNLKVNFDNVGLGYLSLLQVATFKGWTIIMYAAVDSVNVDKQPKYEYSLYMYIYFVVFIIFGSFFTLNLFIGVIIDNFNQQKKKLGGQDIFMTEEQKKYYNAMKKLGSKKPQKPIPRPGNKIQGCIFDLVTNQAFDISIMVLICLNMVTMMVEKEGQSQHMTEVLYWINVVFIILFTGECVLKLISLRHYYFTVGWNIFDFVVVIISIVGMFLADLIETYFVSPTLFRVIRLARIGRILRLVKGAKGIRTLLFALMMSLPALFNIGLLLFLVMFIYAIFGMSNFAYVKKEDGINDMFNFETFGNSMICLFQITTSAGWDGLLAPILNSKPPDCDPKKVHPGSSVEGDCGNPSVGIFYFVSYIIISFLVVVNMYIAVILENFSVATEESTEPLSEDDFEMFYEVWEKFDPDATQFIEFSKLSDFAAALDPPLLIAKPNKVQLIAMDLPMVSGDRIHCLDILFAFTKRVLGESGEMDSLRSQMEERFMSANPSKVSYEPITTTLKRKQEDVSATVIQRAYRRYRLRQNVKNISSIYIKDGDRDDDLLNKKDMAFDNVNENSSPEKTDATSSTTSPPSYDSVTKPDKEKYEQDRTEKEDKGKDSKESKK
T1 sequence (Q9UQD0 whole entry): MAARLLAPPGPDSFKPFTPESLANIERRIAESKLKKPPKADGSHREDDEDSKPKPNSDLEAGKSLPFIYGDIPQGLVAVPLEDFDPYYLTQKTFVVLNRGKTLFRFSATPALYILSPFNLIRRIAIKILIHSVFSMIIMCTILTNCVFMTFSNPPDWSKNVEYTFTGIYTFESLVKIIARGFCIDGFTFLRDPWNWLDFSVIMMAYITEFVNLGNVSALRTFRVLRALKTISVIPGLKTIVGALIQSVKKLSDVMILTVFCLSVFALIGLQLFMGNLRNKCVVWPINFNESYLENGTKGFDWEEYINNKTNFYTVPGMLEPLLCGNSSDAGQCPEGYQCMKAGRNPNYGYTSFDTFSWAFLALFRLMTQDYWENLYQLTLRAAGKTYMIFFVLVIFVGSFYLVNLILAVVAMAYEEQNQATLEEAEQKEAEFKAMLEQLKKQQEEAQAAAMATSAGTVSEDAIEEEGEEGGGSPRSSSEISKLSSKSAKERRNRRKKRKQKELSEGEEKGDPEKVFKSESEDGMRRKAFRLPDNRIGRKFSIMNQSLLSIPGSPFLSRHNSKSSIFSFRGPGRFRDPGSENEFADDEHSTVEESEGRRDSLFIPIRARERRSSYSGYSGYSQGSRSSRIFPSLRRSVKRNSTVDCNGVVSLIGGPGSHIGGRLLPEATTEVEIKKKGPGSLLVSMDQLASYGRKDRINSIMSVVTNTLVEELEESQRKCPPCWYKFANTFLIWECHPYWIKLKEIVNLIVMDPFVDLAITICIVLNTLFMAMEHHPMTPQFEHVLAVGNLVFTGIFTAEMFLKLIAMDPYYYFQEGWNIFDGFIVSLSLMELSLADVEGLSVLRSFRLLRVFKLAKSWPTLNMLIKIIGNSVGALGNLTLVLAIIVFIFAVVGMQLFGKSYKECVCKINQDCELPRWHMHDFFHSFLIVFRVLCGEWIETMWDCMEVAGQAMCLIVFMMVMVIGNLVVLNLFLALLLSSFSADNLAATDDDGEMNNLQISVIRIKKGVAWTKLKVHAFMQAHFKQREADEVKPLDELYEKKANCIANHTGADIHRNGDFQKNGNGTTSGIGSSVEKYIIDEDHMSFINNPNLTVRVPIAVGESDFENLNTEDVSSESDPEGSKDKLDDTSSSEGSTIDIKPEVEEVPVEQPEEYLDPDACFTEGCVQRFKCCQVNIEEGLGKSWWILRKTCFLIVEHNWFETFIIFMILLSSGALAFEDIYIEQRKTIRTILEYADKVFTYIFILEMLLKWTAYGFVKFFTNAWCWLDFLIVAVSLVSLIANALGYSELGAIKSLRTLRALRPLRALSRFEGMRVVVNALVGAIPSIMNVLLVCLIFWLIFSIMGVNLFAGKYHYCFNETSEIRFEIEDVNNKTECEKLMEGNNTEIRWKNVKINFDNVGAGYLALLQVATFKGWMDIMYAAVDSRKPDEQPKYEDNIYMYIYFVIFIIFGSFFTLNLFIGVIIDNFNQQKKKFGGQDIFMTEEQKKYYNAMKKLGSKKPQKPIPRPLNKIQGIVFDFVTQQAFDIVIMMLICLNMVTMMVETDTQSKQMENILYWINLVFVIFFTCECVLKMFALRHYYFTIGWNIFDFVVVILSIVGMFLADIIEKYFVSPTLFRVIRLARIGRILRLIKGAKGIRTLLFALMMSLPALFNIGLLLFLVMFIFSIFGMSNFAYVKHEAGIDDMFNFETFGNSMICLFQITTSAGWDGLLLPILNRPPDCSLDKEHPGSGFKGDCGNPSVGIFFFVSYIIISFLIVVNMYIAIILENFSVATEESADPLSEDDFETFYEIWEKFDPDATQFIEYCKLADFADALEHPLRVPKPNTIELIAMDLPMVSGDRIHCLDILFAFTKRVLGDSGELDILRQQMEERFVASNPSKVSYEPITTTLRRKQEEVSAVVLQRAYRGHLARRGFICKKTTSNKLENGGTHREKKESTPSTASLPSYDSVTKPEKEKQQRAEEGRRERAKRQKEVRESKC

Question: What does the source list for `CSCC[C@@H]1NC(=O)CNC(=O)[C@H](CCC(=O)O)NC(=O)[C@@H]2CSSC[C@H](NC(=O)[C@H](Cc3ccc(O)cc3)NC(C)=O)C(=O)N[C@@H](CCC(N)=O)C(=O)N[C@@H](CCCCN)C(=O)N[C@@H](Cc3ccccc3)C(=O)N[C@@H](CC(C)C)C(=O)N[C@@H](C)C(=O)N3CCC[C@H]3C(=O)N[C@H]3CSSC[C@H](NC(=O)[C@H](CCC(=O)O)NC1=O)C(=O)N[C@@H](CCCCN)C(=O)N[C@@H](CC(C)C)C(=O)N[C@@H](Cc1c[nH]c4ccccc14)C(=O)N[C@H](C(=O)N[C@@H](CCCCN)C(=O)N[C@@H](CCCCN)C(=O)N[C@@H](CCCCN)C(=O)N[C@@H](CC(C)C)C(=O)N[C@@H](Cc1c[nH]c4ccccc14)C(N)=O)CSSC[C@H](NC(=O)[C@H](CCCCN)NC(=O)[C@H](CCCNC(=N)N)NC(=O)[C@H](CCC(=O)O)NC(=O)[C@H](CO)NC(=O)[C@H](CC(=O)O)NC3=O)C(=O)N2` [PPN-01] (Ac-YCQKFLAPCDSERKCCEGMECKLWCKKKLW-NH2; disulfide 2-16, 9-21, 15-25)?
Answer: inhibition effect on Nav1.6 overexpressing HEK293 cells (Nav1.6): no significant inhibition effect; inhibition of Nav1.7 overexpressing HEK293 cells (current traces) (Nav1.7 channels; 300 nM polypeptide, clamp −90 mV, depolarized to +40 mV, 30 ms, vs negative control, n=1 (n=2 for six polypeptides)): significant inhibition; inhibition effect on Nav1.7 overexpressing HEK293 cells (Nav1.7 channels; 300 nM, −90 mV to +40 mV, 30 ms, n=5): significant inhibition effect; inhibition at 0.3 µM (Nav1.7 channels; membrane potential +40 mV): 89.6%; inhibition at 0.3 µM (Nav1.7 channels; membrane potential −30 mV): 73.6%; inhibition at 0.3 µM (Nav1.7 channels; membrane potential −40 mV): 43.6%; Hill coefficient (Nav1.7 channels; concentration-response of Nav1.7 peak current inhibition): 1.18

— patent publication US20260042802A1, “POLYPEPTIDE AND USE THEREOF” (priority 2024, published 2026)
